Experimental data: ChEMBL document CHEMBL1124001, “Synthesis and antileukemic activity of bis[[(carbamoyl)oxy]methyl]- substituted pyrrolo[2,1-a]isoquinolines, pyrrolo[1,2-a]quinolines, pyrrolo[2,1-a]isobenzazepines, and pyrrolo[1,2-a]benzazepines” (J Med Chem, 1988)

Key:
Mus musculus [1] = assay: Net log cell kill was determined after injecting 7.5 mg/kg intraperitoneally in CD2F1 mice; format: functional; settings: route intraperitoneal
Mus musculus [2] = assay: Net log cell kill was determined after injecting 1.87 mg/kg intraperitoneally in CD2F1 mice; format: functional; settings: route intraperitoneal
Mus musculus [3] = assay: Net log cell kill was determined after injecting 15 mg/kg intraperitoneally in CD2F1 mice; format: functional; settings: route intraperitoneal
Mus musculus [4] = assay: Body weight change of test animals to that of control was determined after injection at 60 mg/kg intraperitoneally in CD2F1 mice; format: functional; settings: route intraperitoneal
Mus musculus [5] = assay: Body weight change of test animals to that of control was determined after injection at 7.5 mg/kg intraperitoneally in CD2F1 mice; format: functional; settings: route intraperitoneal
Mus musculus [6] = assay: Net log cell kill was determined after injecting 3.75 mg/kg intraperitoneally in CD2F1 mice; format: functional; settings: route intraperitoneal
Mus musculus [7] = assay: Body weight change of test animals to that of control was determined after injection at 1.87 mg/kg intraperitoneally in CD2F1 mice; format: functional; settings: route intraperitoneal
Mus musculus [8] = assay: Body weight change of test animals to that of control was determined after injection at 15 mg/kg intraperitoneally in CD2F1 mice; format: functional; settings: route intraperitoneal
Mus musculus [9] = assay: Body weight change of test animals to that of control was determined after injection at 3.75 mg/kg intraperitoneally in CD2F1 mice; format: functional; settings: route intraperitoneal
Mus musculus [10] = assay: Toxicity day survivors was determined by the ratio of animals survived to that of test animals at 3.75 mg/kg intraperitoneally in CD2F1 mice; 6/6; format: organism-based; set-up: dose 3.75 mg/kg, route intraperitoneal; settings: in vivo, ip
Mus musculus [11] = assay: Toxicity day survivors was determined by the ratio of animals survived to that of test animals at 60 mg/kg intraperitoneally in CD2F1 mice; 4/6; format: organism-based; set-up: dose 60 mg/kg, route intraperitoneal; settings: in vivo, ip
Mus musculus [12] = assay: Toxicity day survivors was determined by the ratio of animals survived to that of test animals at 1.87 mg/kg intraperitoneally in CD2F1 mice; 6/6; format: organism-based; set-up: dose 1.87 mg/kg, route intraperitoneal; settings: in vivo, ip
Mus musculus [13] = assay: Toxicity day survivors was determined by the ratio of animals survived to that of test animals at 15 mg/kg intraperitoneally in CD2F1 mice; 6/6; format: organism-based; set-up: dose 15 mg/kg, route intraperitoneal; settings: in vivo, ip
Mus musculus [14] = assay: Ratio of treated to that of untreated tumor-bearing control animals at 7.5 mg/kg intraperitoneally in CD2F1 mice was determined; format: functional; settings: route intraperitoneal
Mus musculus [15] = assay: Ratio of treated to that of untreated tumor-bearing control animals at 1.87 mg/kg intraperitoneally in CD2F1 mice was determined; format: functional; settings: route intraperitoneal
Mus musculus [16] = assay: Ratio of treated to that of untreated tumor-bearing control animals at 15 mg/kg intraperitoneally in CD2F1 mice was determined; format: functional; settings: route intraperitoneal
Mus musculus [17] = assay: Toxicity day survivors was determined by the ratio of animals survived to that of test animals at 7.5 mg/kg intraperitoneally in CD2F1 mice; 6/6; format: organism-based; set-up: dose 7.5 mg/kg, route intraperitoneal; settings: in vivo, ip
Mus musculus [18] = assay: Ratio of treated to that of untreated tumor-bearing control animals at 3.75 mg/kg intraperitoneally in CD2F1 mice was determined; format: functional; settings: route intraperitoneal
Mus musculus [19] = assay: Net log cell kill was determined after injecting 60 mg/kg intraperitoneally in CD2F1 mice; format: functional; settings: route intraperitoneal
Mus musculus [20] = assay: Net log cell kill was determined after injecting 120 mg/kg intraperitoneally in CD2F1 mice; format: functional; settings: route intraperitoneal
Mus musculus [21] = assay: Net log cell kill was determined after injecting 240 mg/kg intraperitoneally in CD2F1 mice; format: functional; settings: route intraperitoneal
Mus musculus [22] = assay: Net log cell kill was determined after injecting 480 mg/kg intraperitoneally in CD2F1 mice; format: functional; settings: route intraperitoneal
Mus musculus [23] = assay: Body weight change of test animals to that of control was determined after injection at 120 mg/kg intraperitoneally in CD2F1 mice; format: functional; settings: route intraperitoneal
Mus musculus [24] = assay: Body weight change of test animals to that of control was determined after injection at 240 mg/kg intraperitoneally in CD2F1 mice; format: functional; settings: route intraperitoneal
Mus musculus [25] = assay: Body weight change of test animals to that of control was determined after injection at 480 mg/kg intraperitoneally in CD2F1 mice; format: functional; settings: route intraperitoneal
Mus musculus [26] = assay: Toxicity day survivors was determined by the ratio of animals survived to that of test animals at 120 mg/kg intraperitoneally in CD2F1 mice; 6/6; format: organism-based; set-up: dose 120 mg/kg, route intraperitoneal; settings: in vivo, ip
Mus musculus [27] = assay: Toxicity day survivors was determined by the ratio of animals survived to that of test animals at 240 mg/kg intraperitoneally in CD2F1 mice; 6/6; format: organism-based; set-up: dose 240 mg/kg, route intraperitoneal; settings: in vivo, ip
Mus musculus [28] = assay: Toxicity day survivors was determined by the ratio of animals survived to that of test animals at 480 mg/kg intraperitoneally in CD2F1 mice; 6/6; format: organism-based; set-up: dose 480 mg/kg, route intraperitoneal; settings: in vivo, ip
Mus musculus [29] = assay: Ratio of treated to that of untreated tumor-bearing control animals at 480 mg/kg intraperitoneally in CD2F1 mice was determined; format: functional; settings: route intraperitoneal
Mus musculus [30] = assay: Ratio of treated to that of untreated tumor-bearing control animals at 60 mg/kg intraperitoneally in CD2F1 mice was determined; format: functional; settings: route intraperitoneal
Mus musculus [31] = assay: Ratio of treated to that of untreated tumor-bearing control animals at 120 mg/kg intraperitoneally in CD2F1 mice was determined; format: functional; settings: route intraperitoneal
Mus musculus [32] = assay: Toxicity day survivors was determined by the ratio of animals survived to that of test animals at 60 mg/kg intraperitoneally in CD2F1 mice; 6/6; format: organism-based; set-up: dose 60 mg/kg, route intraperitoneal; settings: in vivo, ip
Mus musculus [33] = assay: Ratio of treated to that of untreated tumor-bearing control animals at 240 mg/kg intraperitoneally in CD2F1 mice was determined; format: functional; settings: route intraperitoneal
Mus musculus [34] = assay: Net log cell kill was determined after injecting 30 mg/kg intraperitoneally in CD2F1 mice; format: functional; settings: route intraperitoneal
Mus musculus [35] = assay: Body weight change of test animals to that of control was determined after injection at 30 mg/kg intraperitoneally in CD2F1 mice; format: functional; settings: route intraperitoneal
Mus musculus [36] = assay: Toxicity day survivors was determined by the ratio of animals survived to that of test animals at 30 mg/kg intraperitoneally in CD2F1 mice; 6/6; format: organism-based; set-up: dose 30 mg/kg, route intraperitoneal; settings: in vivo, ip
Mus musculus [37] = species on record: Mus musculus; assay: Ratio of treated to that of untreated tumor-bearing control animals was determined; format: functional
Mus musculus [38] = assay: Ratio of treated to that of untreated tumor-bearing control animals 30 mg/kg intraperitoneally in CD2F1 mice was determined; format: functional; settings: route intraperitoneal

Row | Compound | KE (Mus musculus [3]) | T-C (Mus musculus [4]) | T-C (Mus musculus [8]) | TDS (Mus musculus [13]) | T/C (Mus musculus [16]) | KE (Mus musculus [19]) | KE (Mus musculus [20]) | KE (Mus musculus [21]) | T-C (Mus musculus [23]) | T-C (Mus musculus [24]) | TDS (Mus musculus [26]) | TDS (Mus musculus [27]) | T/C (Mus musculus [31]) | TDS (Mus musculus [32]) | T/C (Mus musculus [33]) | further results
1 | CNC(=O)OCc1c(COC(=O)NC)c2n(c1C)-c1ccc(OC)cc1CCC2 | 0.27 | -2.8 g | -1.2 g | 6 | 144% | – | – | – | – | – | – | – | – | – | – | KE (Mus musculus [1]): 0.55; KE (Mus musculus [2]): -0.74; T-C (Mus musculus [5]): -1.3 g; KE (Mus musculus [6]): -0.06; T-C (Mus musculus [7]): -1 g; T-C (Mus musculus [9]): -1.6 g; TDS (Mus musculus [10]): 6; TDS (Mus musculus [11]): 4; TDS (Mus musculus [12]): 6; T/C (Mus musculus [14]): 147%; T/C (Mus musculus [15]): 125%; TDS (Mus musculus [17]): 6; T/C (Mus musculus [18]): 135%
2 | CC(C)NC(=O)OCc1cn2c(c1COC(=O)NC(C)C)-c1cc(Cl)c(Cl)cc1CC2 | – | -0.4 g | – | – | – | -1.54 | -0.68 | 0.1 | -2.2 g | -2.3 g | 6 | 6 | 130% | 6 | 137% | KE (Mus musculus [22]): 5.05; T-C (Mus musculus [25]): -3.6 g; TDS (Mus musculus [28]): 6; T/C (Mus musculus [29]): 185%; T/C (Mus musculus [30]): 86%
3 | COc1ccc2c(ccc3c(COC(=O)NC(C)C)c(COC(=O)NC(C)C)c(C)n32)c1 | -1.47 | 0.1 g | -0.1 g | 6 | 109% | -0.3 | -0.12 | 1.19 | -0.6 g | -3.5 g | 6 | 6 | 131% | 6 | 154% | KE (Mus musculus [34]): -0.42; T-C (Mus musculus [35]): 0 g; TDS (Mus musculus [36]): 6; T/C (Mus musculus [37]): 128%; T/C (Mus musculus [38]): 112%
